This note sets out measurements from patent US20160222432A1, “TEST STRIP USING FORMALDEHYDE OR PEROXIDE, FROM AMONG SARCOSINE METABOLITES, FOR DIAGNOSING PROSTATE CANCER, AND METHOD FOR DIAGNOSING PROSTATE CANCER USING SAME” (CSQUARE CO., LTD, priority 2013, published 2016).

The assay concerns sarcosine oxidase. Description: Influence of metal ions (metal chloride salts) on sarcosine oxidase activity. Format: biochemical. The conditions noted are these: sarcosine oxidase activity with metal chloride salt, final concentration 2 mM, None = 100. As for the experimental part:
As shown in the following Table 1, activity of the sarcosine oxidase was greatly influenced by metal ions. Since metal ions were inevitably contained in the sample, EDTA was added at 0.01 to 0.02 g/dL to chelate the metal ions and to prevent activity of the sarcosine oxidase from decreasing due to the metal ions. In this case, when an amount of EDTA added was small, the metal ions were not sufficiently removed. […] In the present example, EDTA4NA was used. However, another substance that can chelate the metal ions could be used. Then, AHMT serving as a chromogen was dissolved at 20 to 50 mM. In this case, when an amount of the reagent added was small, there was no difference in color development between specimens of an intermediate concentration and a high concentration. On the other hand, when an amount of the reagent added was large, discoloration was caused in a natural state, which caused a change in a product or a false positive result.
As shown in the following Table 2, activity of the sarcosine oxidase is greatly influenced by metal ions. When an excessive amount of metal ions was contained in the sample, EDTA was added at 0.01 to 0.02 g/dL in order to chelate and remove the metal ions and prevent activity of the sarcosine oxidase from decreasing due to the metal ions. That is, EDTA serves as a metal adsorber and facilitates activation of the enzymes. In the present example, EDTA4NA was used. However, another substance that can chelate the metal ions could be used. When an amount of EDTA added was small, the metal ions were not sufficiently removed.

Turning to `[Cl][Cd][Cl]` [Cd^2+], the “Relative activity (%)” value reads like this: (Table 1 (first example)) 7%; (Table 2 (second example)) 7%.
On to `[Cl][Hg][Cl]` [Hg^2+], for which the “Relative activity (%)” value came out at 0% (Table 1 (first example)) and 0% (Table 2 (second example)).
Take `[Cl][Mn][Cl]` [Mn^2+]: the “Relative activity (%)” value worked out at 63% (Table 1 (first example)) and 63% (Table 2 (second example)).
As to `[Cl-].[Cl-].[Zn+2]` [Zn^2+], the “Relative activity (%)” value reads like this: (Table 1 (first example)) 7%; (Table 2 (second example)) 7%.
For `[Cl][Fe][Cl]` [Fe^2+], the “Relative activity (%)” value runs as follows: (Table 1 (first example)) 66%; (Table 2 (second example)) 66%.
In the case of `[Cl-].[Cl-].[Co+2]` [Co^2+], the “Relative activity (%)” value turned out to be 52% (Table 1 (first example)) and 52% (Table 2 (second example)).
As for `[Cl][Cu][Cl]` [Cu^2+], the “Relative activity (%)” value by setting is: (Table 1 (first example)) 0%; (Table 2 (second example)) 0%.
On to `[Cl][Ni][Cl]` [Ni^2+], for which the “Relative activity (%)” value is 76% (Table 1 (first example)) and 76% (Table 2 (second example)).
